According to US20220323406A1, “METHODS AND COMPOSITIONS FOR DIFFERENTIATING STEM CELLS” (Massachusetts Institute of Technology, priority 2019, published 2022):
Counter-ions that a name gives are not always drawn.

Tests used:
[1] = system: ENR+CD organoids; test: Primary screen: ATP (CellTiter-Glo 3D, CTG) cell number/viability, 2.5-D 384-well ENR+CD organoids;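 also: compounds given at plating and again on day 3 over a 6-day differentiation from ENR+CV stem-cell-enriched precursors, ATP measured on day 6, plate median as control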
[2] = system: ENR+CD organoids (ISC to Paneth cell differentiation); test: Primary screen: CCh-stimulated lysozyme secretion LYZ.S, 2.5-D 384-well ENR+CD organoid differentiation; format: cell-based, mouse; details: primary screen
From the text: (§1) High-throughput screening.

[3] = system: ENR+CD organoids (ISC to Paneth cell differentiation); test: Primary screen: basal (non-stimulated) lysozyme secretion LYZ.NS, 2.5-D 384-well ENR+CD organoid differentiation; format: cell-based, mouse
From the text: as §1

[4] = primary screen, standard z score, dose 0.08 uM
[5] = primary screen, standard z score, dose 0.40 uM
[6] = primary screen, standard z score, dose 2.00 uM
[7] = primary screen, standard z score, dose 10.00 uM
[8] = primary screen, dose 0.08 uM, standard z score
[9] = primary screen, dose 0.40 uM, standard z score
[10] = primary screen, dose 2.00 uM, standard z score
[11] = primary screen, dose 10.00 uM, standard z score
[12] = primary screen; dose 0.08 uM; FC vs plate median
[13] = primary screen; dose 0.40 uM; FC vs plate median
[14] = primary screen; dose 2.00 uM; FC vs plate median
[15] = primary screen; dose 10.00 uM; FC vs plate median
[16] = primary screen, dose 0.08 uM, FC relative to plate median
[17] = primary screen, dose 0.40 uM, FC relative to plate median
[18] = primary screen, dose 2.00 uM, FC relative to plate median
[19] = primary screen, dose 10.00 uM, FC relative to plate median

SMILES | Dose.FC.CTG ([1]; primary screen, dose 0.08 uM) | Dose.FC.CTG ([1]; primary screen, dose 0.40 uM) | Dose.FC.CTG ([1]; primary screen, dose 2.00 uM) | Dose.FC.CTG ([1]; primary screen, dose 10.00 uM) | Dose.FC.LYZ.S ([2]; dose 0.08 uM) | Dose.FC.LYZ.S ([2]; dose 0.40 uM) | Dose.FC.LYZ.S ([2]; dose 2.00 uM) | Dose.FC.LYZ.S ([2]; dose 10.00 uM) | Dose.FC.LYZ.NS ([3]; primary screen, dose 0.08 uM) | Z.LYZ.NS (standard z score) ([3]; primary screen, dose 0.08 uM) | Dose.FC.LYZ.NS ([3]; primary screen, dose 0.40 uM) | Z.LYZ.NS (standard z score) ([3]; primary screen, dose 0.40 uM) | Dose.FC.LYZ.NS ([3]; primary screen, dose 2.00 uM) | Z.LYZ.NS (standard z score) ([3]; primary screen, dose 2.00 uM) | Dose.FC.LYZ.NS ([3]; primary screen, dose 10.00 uM) | Z.LYZ.NS (standard z score) ([3]; primary screen, dose 10.00 uM) | Z.LYZ.NS [3, 4] | Z.LYZ.NS [3, 5] | Z.LYZ.NS [3, 6] | Z.LYZ.NS [3, 7] | further results
O=c1ncn2nc(Sc3ccc(F)cc3F)ccc2c1-c1c(Cl)cccc1Cl [VX-745] | 0.186 log2 fold change | 0.146 log2 fold change | 0.018 log2 fold change | 0.022 log2 fold change | 0.154 log2 fold change | 0.054 log2 fold change | 0.058 log2 fold change | 0.038 log2 fold change | 0.092 log2 fold change | 0.805 | 0.004 log2 fold change | 0.031 | 0.021 log2 fold change | 0.186 | −0.006 log2 fold change | −0.049 | – | – | – | – | –
COc1ccc2c(c1)C(=O)N(CCc1ccc(S(=O)(=O)NC(=O)NC3CCCCC3)cc1)C(=O)C2(C)C [Gliquidone] | – | – | – | – | – | – | – | – | – | 0.893 | – | 0.322 | – | 0.747 | – | 0.268 | – | – | – | – | Dose.FC.CTG (log2 fold change) ([1]; primary screen, dose 0.08 uM): 0.124; Dose.FC.CTG (log2 fold change) ([1]; primary screen, dose 0.40 uM): 0.103; Dose.FC.CTG (log2 fold change) ([1]; primary screen, dose 2.00 uM): 0.246; Dose.FC.CTG (log2 fold change) ([1]; primary screen, dose 10.00 uM): 0.134; Dose.FC.LYZ.S (log2 fold change) ([2]; dose 0.08 uM): 0.101; Dose.FC.LYZ.S (log2 fold change) ([2]; dose 0.40 uM): 0.070; Dose.FC.LYZ.S (log2 fold change) ([2]; dose 2.00 uM): 0.006; Dose.FC.LYZ.S (log2 fold change) ([2]; dose 10.00 uM): −0.020; Dose.FC.LYZ.NS (log2 fold change) ([3]; primary screen, dose 0.08 uM): 0.103; Dose.FC.LYZ.NS (log2 fold change) ([3]; primary screen, dose 0.40 uM): 0.037; Dose.FC.LYZ.NS (log2 fold change) ([3]; primary screen, dose 2.00 uM): 0.086; Dose.FC.LYZ.NS (log2 fold change) ([3]; primary screen, dose 10.00 uM): 0.031
O=C(Nc1cccc(C(F)(F)F)c1)Nc1cc(S(=O)(=O)NC2CC2)ccc1-c1ccsc1 [AGI-6780] | 0.281 log2 fold change | 0.231 log2 fold change | 0.298 log2 fold change | 0.107 log2 fold change | 0.095 log2 fold change | 0.156 log2 fold change | 0.055 log2 fold change | −0.054 log2 fold change | 0.069 log2 fold change | 0.597 | 0.031 log2 fold change | 0.268 | 0.043 log2 fold change | 0.374 | −0.090 log2 fold change | −0.785 | – | – | – | – | Z.CTG (standard z score) ([1]; primary screen, dose 0.08 uM): 0.671; Z.CTG (standard z score) ([1]; primary screen, dose 0.40 uM): 0.551; Z.CTG (standard z score) ([1]; primary screen, dose 2.00 uM): 0.713; Z.CTG (standard z score) ([1]; primary screen, dose 10.00 uM): 0.256
CCNC(=O)[C@H]1O[C@@H](n2cnc3c(N)nc(NCCc4ccc(CCC(=O)O)cc4)nc32)[C@H](O)[C@@H]1O [CGS 21680 HCl] | 0.303 log2 fold change | 0.439 log2 fold change | 0.335 log2 fold change | −1.393 log2 fold change | 0.180 log2 fold change | 0.191 log2 fold change | 0.097 log2 fold change | −0.334 log2 fold change | 0.132 log2 fold change | – | 0.167 log2 fold change | – | 0.055 log2 fold change | – | −0.251 log2 fold change | – | 1.151 | 1.452 | 0.483 | −2.187 | –
O=C(O)c1cc2cccc([N+](=O)[O-])c2[nH]1 [CRT0044876] | −0.171 log2 fold change | −0.040 log2 fold change | −0.081 log2 fold change | −0.099 log2 fold change | −0.002 log2 fold change | 0.055 log2 fold change | 0.014 log2 fold change | −0.061 log2 fold change | 0.016 log2 fold change | – | 0.034 log2 fold change | – | 0.047 log2 fold change | – | 0.032 log2 fold change | – | 0.135 | 0.298 | 0.408 | 0.278 | Z.CTG [1, 4]: −0.410; Z.CTG [1, 5]: −0.096; Z.CTG [1, 6]: −0.192; Z.CTG [1, 7]: −0.237
CCOc1nc2cccc(C(=O)O)c2n1Cc1ccc(-c2ccccc2-c2nnn[nH]2)cc1 [Candesartan] | −0.003 log2 fold change | −0.125 log2 fold change | −0.198 log2 fold change | −0.253 log2 fold change | −0.015 log2 fold change | −0.032 log2 fold change | −0.092 log2 fold change | −0.075 log2 fold change | 0.013 log2 fold change | – | −0.015 log2 fold change | – | 0.007 log2 fold change | – | −0.051 log2 fold change | – | 0.113 | −0.128 | 0.065 | −0.442 | –
CN(c1ncccc1CNc1nc(Nc2ccc3c(c2)CC(=O)N3)ncc1C(F)(F)F)S(C)(=O)=O [PF-562271] | – | – | – | – | – | – | – | – | – | – | – | – | – | – | – | – | – | – | – | – | Z.CTG [1, 8]: −0.273; Z.CTG [1, 9]: −0.518; Z.CTG [1, 10]: −1.311; Z.CTG [1, 11]: −2.266; Dose.FC.CTG [1, 12]: −0.114 log2 fold change; Dose.FC.CTG [1, 13]: −0.217 log2 fold change; Dose.FC.CTG [1, 14]: −0.549 log2 fold change; Dose.FC.CTG [1, 15]: −0.949 log2 fold change; Dose.FC.LYZ.S ([2]; dose 0.08 uM, FC vs plate median): −0.088 log2 fold change; Dose.FC.LYZ.S ([2]; dose 0.40 uM, FC vs plate median): −0.214 log2 fold change; Dose.FC.LYZ.S ([2]; dose 2.00 uM, FC vs plate median): −0.332 log2 fold change; Dose.FC.LYZ.S ([2]; dose 10.00 uM, FC vs plate median): −0.414 log2 fold change; Z.LYZ.NS [3, 8]: −0.589; Z.LYZ.NS [3, 9]: −1.325; Z.LYZ.NS [3, 10]: −2.034; Z.LYZ.NS [3, 11]: −2.184; Dose.FC.LYZ.NS [3, 12]: −0.068 log2 fold change; Dose.FC.LYZ.NS [3, 13]: −0.152 log2 fold change; Dose.FC.LYZ.NS [3, 14]: −0.234 log2 fold change; Dose.FC.LYZ.NS [3, 15]: −0.251 log2 fold change
CNC(=C[N+](=O)[O-])NCCSCc1ccc(CN(C)C)o1 [Ranitidine] | – | – | – | – | – | – | – | – | – | – | – | – | – | – | – | – | – | – | – | – | Dose.FC.CTG [1, 16]: −0.051 log2 fold change; Dose.FC.CTG [1, 17]: 0.155 log2 fold change; Dose.FC.CTG [1, 18]: −0.069 log2 fold change; Dose.FC.CTG [1, 19]: −0.262 log2 fold change; Dose.FC.LYZ.S ([2]; dose 0.08 uM, FC relative to plate median): −0.020 log2 fold change; Dose.FC.LYZ.S ([2]; dose 0.40 uM, FC relative to plate median): 0.071 log2 fold change; Dose.FC.LYZ.S ([2]; dose 2.00 uM, FC relative to plate median): −0.040 log2 fold change; Dose.FC.LYZ.S ([2]; dose 10.00 uM, FC relative to plate median): −0.043 log2 fold change; Dose.FC.LYZ.NS [3, 16]: −0.027 log2 fold change; Z.LYZ.NS [3, 8]: −0.234; Dose.FC.LYZ.NS [3, 17]: 0.011 log2 fold change; Z.LYZ.NS [3, 9]: 0.095; Dose.FC.LYZ.NS [3, 18]: −0.045 log2 fold change; Z.LYZ.NS [3, 10]: −0.389; Dose.FC.LYZ.NS [3, 19]: −0.046 log2 fold change; Z.LYZ.NS [3, 11]: −0.401
